How the values were obtained:
polyamine transporter [1] = assay: Spermidine uptake ([3H]spermidine) in ZR-75-1 cells; assay type: cell-based, human; conditions: FIG. 3
Procedure: (§1) J. Biol. […] Endocrinology 126: 3223-3231). […] Cell cultures were then washed twice with 1 ml PBS containing 5.7 mM sym-norspermidine. Cells were then lysed with 200-μl aliquot of 1 N NaOH and incubated for 30 minutes at 60° C. After neutralization with 200 μl of 1 N HCl, radioactivity was determined from a 250-μl of the cell lysate by scintillation counting. Uptake activity was expressed per amount of total cellular protein as determined by the method of Bradford (Bradford, M. M. 1976. Anal. Biochem. 72: 248-254). Non-specific binding of radioactive substrate was similarly determined in parallel for both cell lines after a 15 second-incubation with 400 μl of ice-cold uptake solution. […] Km, Ki and Vmax values were then estimated by Line-weaver-Burke analysis. For competitive inhibitors, Ki values were also estimated by measuring uptake activity in the presence of logarithmically increasing concentrations of antagonist, and using the Cheng-Prusoff equation (Cheng. Y. -C. and Prusoff, W. H. 1973. Biochem. Pharmacol. 22: 3099-3108) by iterative curve fitting for a sigmoidal curve. For mixed competitive/noncompetitive inhibition, two methods were used to calculate kinetic constants. […] C. 1976. Enzymes, 3rd Ed., Academic Press, San Diego, Calif.). […] C. 1976. Enzymes, 3rd Ed., Academic Press, San Diego, Calif.).

polyamine transporter [2] = conditions: ZR-75-1 cells; compound as its own substrate; read-out: Km, spermine transport; cited from earlier work
[3] = secondary amino group of the spermine head; cited from earlier work
ZR-75-1 cells = assay: Effect of inhibitors on cell proliferation (11 days, DNA content); assay type: cell-based, human; conditions: 11 days
Procedure: Effect of Inhibitors on Cell Proliferation--For growth studies, ZR-75-1 cells were cultured in MEZR medium or in phenol red-free RPMI 1640 supplemented with 2 mM L-glutamine, 1 mM sodium pyruvate, 15 mM Hepes, antibiotics, 1 nM 17β-estradiol, 0.5 μg of bovine insulin per ml and 5% (v/v) charcoal-treated fetal bovine serum (SD medium), as indicated in the text. […] M. L. 1989. in The Physiology of Polyamines (Bachrach, U., and Helmer, Y. M. eds) Vol. I, pp. 203-229, CRC Press, Boca Raton). […] Endocrinology 126: 3223-3231). Medium was changed every other day in these experiments because of the slow reaction of the compound with an unknown component present in the IMEM and RPMI 1640 medium formulation.

polyamine transporter [4] = assay: Putrescine uptake ([3H]putrescine) in ZR-75-1 cells; assay type: cell-based, human; conditions: FIG. 3
Procedure: as §1

For `NCCCNCCCCNCCCN` [Spermine, N,N'-bis-[3-aminopropyl]-1,4-butane-diamine, reference compound], the “Ability to compete against [3H]spermidine uptake, fold higher than that of DESC” value (polyamine transporter [1]) is given as “about 7 fold”, the Km (polyamine transporter [2]) is given as 0.2 ± 0.06 µM and the pKa [3] is given as 8.9-9.8. The “Effect on cell growth” value (ZR-75-1 cells; 50 μM) was “acutely cytotoxic”, the “Influence of 1 mM aminoguanidine on the growth effect of the compound” value (ZR-75-1 cells; spermine 50 μM, MESC 200 μM, DEASC 50 μM) was “only partly prevented by aminoguanidine” and the “Ability to compete against [3H]putrescine uptake, fold higher than that of DESC” value (polyamine transporter [4]) was “about 7 fold”.

— US6083496A, “Polyamine transport inhibitors” (priority 1996, dated 2000)
